For orientation: IC50 means the concentration needed to halve the response being measured. What is called inhibition is the percentage by which the read-out fell short of the control. Low values mean little suppression, high ones strong suppression.

In this assay the target is T1, FGFR1 kinase (Homo sapiens, UniProt P11362).
T1 construct: purchased Upstate, USA
Briefly: TR-FRET assay with FGFR1 kinase. The format is biochemical. Conditions: 13 μM ATP; for IC50: dose response, read-out: IC50 of FGFR1 inhibition. On the procedure:
1. Inhibition of FGFR1 kinase
Compounds were screened in the TR-FRET assay with FGFR1 kinase. 5 ng of FGFR1 [Upstate, USA] kinase was used for assay. The compound was incubated with the kinase for 30 minutes at room temperature. After the incubation, substrate mix [40 nM Ultra light poly GT (Perkin Elmer, USA) and 13 μM ATP (Sigma)] was added. The above reaction was stopped by the addition of 40 mM EDTA after the 30 min kinase reaction. The Eu-labelled antiphospho-tyrosine antibody [Perkin Elmer, USA] was added at 0.5 nM and the fluorescence emission at 615 nm/665 nm [excitation at 340 nm] was measured. The compounds were initially screened at 100 nM and 1 μM concentrations. The compounds with >50% inhibition at 100 nM of FGFR1 were taken for the full dose response studies. The final DMSO concentration in the assay was 1%. For IC50 determination, ⅓^rd serial dilution was made from the 20 mM DMSO stock solution. 2 μl of these were transferred to the test wells containing […] of the reaction mixture [total reaction volume 20 μl]. The fluorescence was measured in Perkin Elmer Wallac 1420 Multilabel Counter Victor 3. The IC50 was determined by fitting the dose response data to sigmoidal curve fitting equation using GraphPad Prism software V5.

T1 sequence (P11362 22-822): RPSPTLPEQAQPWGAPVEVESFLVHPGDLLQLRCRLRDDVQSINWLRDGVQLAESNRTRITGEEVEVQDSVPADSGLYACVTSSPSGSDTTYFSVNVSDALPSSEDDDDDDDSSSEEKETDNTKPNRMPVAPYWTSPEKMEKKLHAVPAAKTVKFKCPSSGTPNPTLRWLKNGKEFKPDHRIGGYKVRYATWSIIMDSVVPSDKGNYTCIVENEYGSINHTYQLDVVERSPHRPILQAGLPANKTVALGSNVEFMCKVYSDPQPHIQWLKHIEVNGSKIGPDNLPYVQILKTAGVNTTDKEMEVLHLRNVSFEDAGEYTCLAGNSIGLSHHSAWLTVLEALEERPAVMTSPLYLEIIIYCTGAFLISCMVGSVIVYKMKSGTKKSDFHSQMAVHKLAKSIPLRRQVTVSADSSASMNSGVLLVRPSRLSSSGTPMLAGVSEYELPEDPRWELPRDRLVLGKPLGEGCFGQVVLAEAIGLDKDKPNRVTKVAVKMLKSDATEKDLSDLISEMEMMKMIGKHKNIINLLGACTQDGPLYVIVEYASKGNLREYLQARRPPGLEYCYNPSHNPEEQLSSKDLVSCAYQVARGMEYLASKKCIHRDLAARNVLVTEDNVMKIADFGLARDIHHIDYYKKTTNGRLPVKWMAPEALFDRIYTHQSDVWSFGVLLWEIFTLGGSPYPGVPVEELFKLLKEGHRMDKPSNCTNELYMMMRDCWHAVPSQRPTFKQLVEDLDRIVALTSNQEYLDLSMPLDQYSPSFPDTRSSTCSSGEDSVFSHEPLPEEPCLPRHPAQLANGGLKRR

As for `Cn1cc(-c2ccc3c(c2)ncn3-c2cc(-c3ncccc3F)cc(NS(=O)(=O)C3CC3)n2)cn1` [Example 18, N-(3-fluoro-6′-(5-(1-methyl-1H-pyrazol-4-yl)-1H-benzo[d]imidazol-1-yl)-[2,4′-bipyridin]-2-yl)cyclopropanesulfonamide], the IC50 turned out to be 5 nM. The “Inhibition (%) of FGFR1 at 1000 nM” value (compound at 1000 nM) is recorded as 97%.
Take `CC(=O)Nc1cc(-c2ncccc2F)cc(-n2cnc3cc(-c4cnn(C)c4)ccc32)n1` [Example 19, N-(3-fluoro-6′-(5-(1-methyl-1H-pyrazol-4-yl)-1H-benzo[d]imidazol-1-yl)-[2,4′-bipyridin]-2′-yl)acetamide]: the half-inhibitory concentration (IC50) is 28.5 nM. The inhibition at 1 µM (compound at 1000 nM) is 96%.
For the compound `CN(C)CCn1cc(-c2ccc3c(c2)ncn3-c2cc(-c3ccc(F)cc3F)cc(NS(=O)(=O)C3CC3)n2)cn1` [Example 21, N-(4-(2,4-difluorophenyl)-6-(5-(1-(2-(dimethylamino)ethyl)-1H-pyrazol-4-yl)-1H-benzo[d]imidazol-1-yl)pyridin-2-yl)cyclopropanesulfonamide], the IC50 was found to be 3.7 nM. This compound registered an inhibition at 1 µM (compound at 1000 nM) of 99%.
In the same order, the values of `Cn1cc(-c2ccc3c(c2)ncn3-c2cc(-c3ccccc3F)nc(NS(=O)(=O)C3CC3)n2)cn1` [Example 22, N-(4-(2-fluorophenyl)-6-(5-(1-methyl-1H-pyrazol-4-yl)-1H-benzo[d]imidazol-1-yl)pyrimidin-2-yl)cyclopropanesulfonamide] are 9.2 nM and 97%.
In the same order, the values of `O=S(=O)(Nc1cc(-c2ccc(F)cc2F)cc(-n2cnc3cc(-n4cccn4)ccc32)n1)C1CC1` [Example 23, N-(6-(5-(1H-pyrazol-1-yl)-1H-benzo[d]imidazol-1-yl)-4-(2,4-difluorophenyl)-pyridin-2-yl)cyclopropanesulfonamide] are 10 nM and 97%.
On to `Cn1cc(-c2ccc3c(c2)ncn3-c2cc(-c3ncc(F)cc3F)cc(NS(=O)(=O)C3CC3)n2)cn1` [Example 25, N-(3,5-difluoro-6′-(5-(1-methyl-1H-pyrazol-4-yl)-1H-benzo[d]imidazol-1-yl)-[2,4′-bipyridin]-2′-yl)cyclopropanesulfonamide], for which the IC50 amounted to 3.1 nM. For the same compound, the inhibition at 1 µM (compound at 1000 nM) was found to be 97%.
Consider `CC(=O)Nc1cc(-c2ncc(F)cc2F)cc(-n2cnc3cc(-c4cnn(C)c4)ccc32)n1` [Example 26, N-(3,5-difluoro-6′-(5-(1-methyl-1H-pyrazol-4-yl)-1H-benzo[d]imidazol-1-yl)-[2,4′-bipyridin]-2′-yl)acetamide], for which the IC50 amounted to 21.9 nM. Further, 1 µM produced 94% inhibition (compound at 1000 nM).
In the same order, the values of `Cn1cc(-c2ccc3c(c2)ncn3-c2cc(-c3ccccc3Cl)cc(NS(=O)(=O)C3CC3)n2)cn1` [Example 28, N-(4-(2-chlorophenyl)-6-(5-(1-methyl-1H-pyrazol-4-yl)-1H-benzo[d]imidazol-1-yl)pyridin-2-yl)cyclopropanesulfonamide] are 7.2 nM and 97%.
Take `Cn1cc(-c2ccc3c(c2)ncn3-c2cc(-c3ncccc3Cl)cc(NS(=O)(=O)C3CC3)n2)cn1` [Example 29, N-(3-chloro-6′-(5-(1-methyl-1H-pyrazol-4-yl)-1H-benzo[d]imidazol-1-yl)-[2,4′-bipyridin]-2′-yl)cyclopropanesulfonamide]: the IC50 is 9.7 nM. This compound displayed an inhibition at 1 µM (compound at 1000 nM) of 97%.
In the same order, the values of `Cn1cc(-c2ccc3c(c2)ncn3-c2cc(-c3ccc(F)cn3)cc(NS(=O)(=O)C3CC3)n2)cn1` [Example 30, N-(5-fluoro-6′-(5-(1-methyl-1H-pyrazol-4-yl)-1H-benzo[d]imidazol-1-yl)-[2,4′-bipyridin]-2′-yl)cyclopropanesulfonamide] are 24 nM and 96%.
As to `O=S(=O)(Nc1cc(-c2ccc(F)cc2F)cc(-n2cnc3cc(-n4ccnc4)ccc32)n1)C1CC1` [Example 32, N-(6-(5-(1H-imidazol-1-yl)-1H-benzo[d]imidazol-1-yl)-4-(2,4-difluorophenyl)-pyridin-2-yl)cyclopropanesulfonamide], the IC50 is 21.7 nM. This compound also gave an inhibition at 1 µM (compound at 1000 nM) of 99%.
For the compound `O=S(=O)(Nc1cc(-c2ccc(F)cc2F)cc(-n2cnc3cc(-c4cnn(CCN5CCOCC5)c4)ccc32)n1)C1CC1` [Example 33, N-(4-(2,4-difluorophenyl)-6-(5-(1-(2-morpholinoethyl)-1H-pyrazol-4-yl)-1H-benzo[d]imidazol-1-yl)pyridin-2-yl)cyclopropanesulfonamide], the IC50 came to 2 nM. The inhibition at 1 µM (compound at 1000 nM) turned out to be 99%.
The corresponding values for `O=S(=O)(Nc1cc(-c2ccc(F)cc2F)cc(-n2cnc3cc(-c4cnn(C5CCNC5)c4)ccc32)n1)C1CC1` (stereo not drawn) [Example 34, N-(4-(2,4-difluorophenyl)-6-(5-(1-(pyrrolidin-3-yl)-1H-pyrazol-4-yl)-1H-benzo[d]imidazol-1-yl)pyridin-2-yl)cyclopropanesulfonamide] are 1.6 nM and 99%.
In the same order, the values of `CCn1cc(-c2ccc3c(c2)ncn3-c2cc(-c3ccc(F)cc3F)cc(NS(=O)(=O)C3CC3)n2)nn1` [Example 35, N-(4-(2,4-difluorophenyl)-6-(5-(1-ethyl-1H-1,2,3-triazol-4-yl)-1H-benzo[d]-imidazol-1-yl)pyridin-2-yl)cyclopropanesulfonamide] are 2 nM and 99%.
The corresponding values for `Cn1cc(-c2ccc3c(c2)ncn3-c2cc(-c3ccc(F)cc3F)cc(NS(=O)(=O)C3CC3)n2)nn1` [Example 36, N-(4-(2,4-difluorophenyl)-6-(5-(1-methyl-1H-1,2,3-triazol-4-yl)-1H-benzo[d]-imidazol-1-yl)pyridin-2-yl)cyclopropanesulfonamide] are 4.7 nM and 99%.
`Cn1cnc(-c2ccc3c(c2)ncn3-c2cc(-c3ccc(F)cc3F)cc(NS(=O)(=O)C3CC3)n2)c1` [Example 37, N-(4-(2,4-difluorophenyl)-6-(5-(1-methyl-1H-imidazol-4-yl)-1H-benzo[d]-imidazol-1-yl)pyridin-2-yl)cyclopropanesulfonamide]: the IC50 amounted to 1.3 nM. Further, the inhibition at 1 µM (compound at 1000 nM) came out at 99%.
Turning to `CC(=O)Nc1nc(-c2ccc(F)cc2F)cc(-n2cnc3cc(-c4cnn(C)c4)ccc32)n1` [Example 38, N-(4-(2,4-difluorophenyl)-6-(5-(1-methyl-1H-pyrazol-4-yl)-1H-benzo[d]-imidazol-1-yl)pyrimidin-2-yl)acetamide], the IC50 amounted to 12 nM. Besides, the inhibition at 1 µM (compound at 1000 nM) worked out at 87%.
The corresponding values for `CCOC(=O)c1cn(-c2ccc3c(c2)ncn3-c2cc(-c3ccc(F)cc3F)cc(NS(=O)(=O)C3CC3)n2)nn1` [Example 39, Ethyl 1-(1-(6-(cyclopropanesulfonamido)-4-(2,4-difluorophenyl)pyridin-2-yl)-1H-benzo[d]imidazol-5-yl)-1H-1,2,3-triazole-4-carboxylate] are 294 nM and 81%.
In the case of `Cn1cc(-c2ccc3c(c2)ncn3-c2cc(-c3ccc(F)cc3OC(F)F)cc(NS(=O)(=O)C3CC3)n2)cn1` [Example 40, N-(4-(2-(difluoromethoxy)-4-fluorophenyl)-6-(5-(1-methyl-1H-pyrazol-4-yl)-1H-benzo[d]imidazol-1-yl)pyridin-2-yl)cyclopropanesulfonamide], the IC50 was 293 nM. For the same compound, the inhibition at 1 µM (compound at 1000 nM) was 76%.
With `Cn1cc(-c2ccc3c(c2)ncn3-c2cc(-c3ccc(F)cc3F)nc(NS(=O)(=O)C3CC3)n2)cn1` [Example 41, N-(4-(2,4-difluorophenyl)-6-(5-(1-methyl-1H-pyrazol-4-yl)-1H-benzo[d]-imidazol-1-yl)pyrimidin-2-yl)cyclopropanesulfonamide], the IC50 was determined as 32.7 nM. Besides, the inhibition at 1 µM (compound at 1000 nM) was found to be 93%.
The corresponding values for `Cn1cc(-c2ccc3c(c2)ncn3-c2cc(NS(=O)(=O)C3CC3)nc(-c3ccc(F)cc3F)c2)cn1` [Example 43, N-(6-(2,4-difluorophenyl)-4-(5-(1-methyl-1H-pyrazol-4-yl)-1H-benzo[d]-imidazol-1-yl)pyridin-2-yl)cyclopropanesulfonamide] are 43.4 nM and 94%.
